# Laboratory results taken from patent US20090281106A1, “PROPHYLACTIC AND/OR THERAPEUTIC METHOD FOR RHEUMATOID ARTHRITIS” (Kowa Co., Ltd, priority 2005, published 2009).
# System: rat collagen-induced arthritis model
# Assay: rat collagen-induced arthritis model, edema suppression in both hindlimbs
# Assay type: in vivo, female Lewis rat (LEW/Crj)
# Conditions: oral, Drug A 3 mg/kg twice a day, Drug B 1.5 mg/kg once a day; for Relative index: edema volume of group / control group; for Edema volume for both hindlimbs: average ± standard error of 5 to 6 rats; for Decreasing rate: vs control group; for edema suppressive effect (in words): sole administration
# Description: For the cases of combined administration of 2-benzyl-5-(4-chlorophenyl)-6-[4-(methylthio)phenyl]-2H-pyridazin-3-one (the product synthesized by the above-described method is used) (Drug A) and leflunomide (Drug B), and respective single drug administrations, the effect of edema suppression in both hindlimbs was determined by the following method (rat collagen-induced arthritis model) (FDA, CBER, CDER, CDRH: Guidance for industry—Clinical development programs for drugs, devices, and biological products for the treatment of rheumatoid arthritis (RA)—. (1999)). In addition, the test animal used was female Lewis rat (LEW/Crj) (obtained from Charles River Laboratories Japan, Inc.).
# For each 8-week-old LEW/Crj rat, the volume of a portion extending from the ankle to the paw was measured for both hindlimbs (hereinafter, hindlimbs volume) by means of a plethysmometer for small animals (TK-101CMP, product of Unicom), and the total volume was taken as the hindlimbs volume upon initiation of test (hereinafter, Pre value). This Pre value was used as an index to divide the rats into groups by one-parameter-based block randomization, so that the values in the respective groups averaged out.
# The collagen emulsion for sensitization that was used to induce arthritis in rats, was prepared by homogenizing a 0.3% Type II collagen solution (Collagen Research Center), Adjuvant Peptide (Peptide Institute, Inc.) and Adjuvant Incomplete Freund (DIFCO), using a Handy Micro Homogenizer (Microtec Nition, Co., Ltd.) under ice-cooling. The collagen emulsion thus prepared was intracutaneously administered at 10 sites in the back of each rat at a dose of 0.1 mL/site, to perform initial sensitization of the rat. Seven days after the initial sensitization, 0.12 mL of the same collagen emulsion was intracutaneously administered to the tail head of each rat, to perform booster sensitization.
# Drug administration was conducted from the day after the initial sensitization through 29 days thereafter. The group for sole administration of Drug A was orally administered with the drug at 3 mg/kg, twice a day, in the morning (9:00 to 11:00) and in the evening (15:30 to 17:30). The group for sole administration of Drug B was orally administered with the drug at 1.5 mg/kg, once a day, in the afternoon (11:30 to 13:30). On the other hand, the group for combined administration of Drug A and Drug B was orally administered with Drug A at 3 mg/kg in the morning (9:00 to 11:00) and in the evening (15:30 to 17:30), and with Drug B at 1.5 mg/kg in the afternoon (11:30 to 13:30).
# 14, 18, 21, 26 and 31 days after the initial sensitization, the hindlimbs volume was measured again for each rat, and the difference between each of the values and the Pre value was determined to calculate the edema volume for both hindlimbs.
# Tables 1 to 4 and FIGS. 1 to 4 represent the edema volume for both hindlimbs after 18, 21, 26 and 31 days from the initial sensitization, respectively, of the group for sole administration of Drug A, the group for sole administration of Drug B and the group for combined administration. The edema volume for both hindlimbs (mL) is expressed in the average value±standard error of 5 to 6 rats in each group. Furthermore, the decreasing rate is indicated as (average value of edema volume for both hindlimbs for the control group−the average value of edema volume for hindlimbs for each group)/(average value of edema volume for both hindlimbs for the control group)×100, while the relative index is indicated as (average value of edema volume for both hindlimbs for each group)/(average value of edema volume for both hindlimbs for the control group).
# [1] = 18 days after initial sensitization
# [2] = 21 days after initial sensitization
# [3] = 26 days after initial sensitization
# [4] = 31 days after initial sensitization
smiles,measurement,setting,value
"Cc1oncc1C(=O)Nc1ccc(C(F)(F)F)cc1 [Drug B, N-(4-trifluoromethylphenyl)-5-methylisoxazole-4-carboxamide]",Relative index,[1],0.28
same,Edema volume for both hindlimbs,[1],0.57 ± 0.32 mL
same,Decreasing rate,[1],72%
same,Relative index,[2],0.34
same,Edema volume for both hindlimbs,[2],0.58 ± 0.31 mL
same,Decreasing rate,[2],66%
same,Relative index,[3],0.49
same,Edema volume for both hindlimbs,[3],0.78 ± 0.28 mL
same,Decreasing rate,[3],51%
same,Relative index,[4],0.57
same,Edema volume for both hindlimbs,[4],0.81 ± 0.26 mL
same,Decreasing rate,[4],43%
same,edema suppressive effect (in words),,decrease in the edema suppressive effect in the stage after 18 days from the initial sensitization
"CSc1ccc(-c2nn(Cc3ccccc3)c(=O)cc2-c2ccc(Cl)cc2)cc1 [Drug A, 2-benzyl-5-(4-chlorophenyl)-6-[4-(methylthio)phenyl]-2H-pyridazin-3-one]",Relative index,[1],0.89
same,Edema volume for both hindlimbs,[1],1.79 ± 0.17 mL
same,Decreasing rate,[1],11%
same,Relative index,[2],0.90
same,Edema volume for both hindlimbs,[2],1.54 ± 0.17 mL
same,Decreasing rate,[2],10%
same,Relative index,[3],0.99
same,Edema volume for both hindlimbs,[3],1.58 ± 0.27 mL
same,Decreasing rate,[3],1%
same,Relative index,[4],1.02
same,Edema volume for both hindlimbs,[4],1.44 ± 0.26 mL
same,Decreasing rate,[4],−2%
same,edema suppressive effect (in words),,did not show a potent edema suppressive effect
